Values after ≈ are worked out from the molar mass of the structure shown.
Key:
KM20L2 = assay: Human cancer cell line inhibitory activity, Colon KM20L2; type: cell-based
SF268 = assay: Human cancer cell line inhibitory activity, CNS SF268; type: cell-based
MCF-7 = assay: Human cancer cell line inhibitory activity, Breast MCF-7; type: cell-based
NCI-H460 = assay: Human cancer cell line inhibitory activity, Lung-NSC NCI-H460; type: cell-based
BXPC-3 = assay: Human cancer cell line inhibitory activity, Pancreas-a BXPC-3; type: cell-based
DU-145 = assay: Human cancer cell line inhibitory activity, Prostate DU-145; type: cell-based
[1] = freeze dried solid
Protocol: Sodium pancratistatin 3,4-cyclic phosphate (5a, 0.0165 g, 0.04 mmol) was dissolved in water (1 ml) and eluted through a column containing Amberlite IR 120 (H+) resin.

## O=C1N[C@H]2[C@H](OP(=O)(O)O)[C@H](O)[C@@H](O)[C@H](O)[C@@H]2c2cc3c(c(O)c21)OCO3 [Compound 4b, Pancratistatin 4-O-phosphoric Acid]
KM20L2
  GI50 Colon KM20L2: 0.33 µg/mL (≈ 0.814 µM)
SF268
  GI50 CNS SF268: 0.35 µg/mL (≈ 0.864 µM)
MCF-7
  GI50 Breast MCF-7: 0.43 µg/mL (≈ 1.06 µM)
NCI-H460
  GI50 Lung-NSC NCI-H460: 0.42 µg/mL (≈ 1.04 µM)
BXPC-3
  GI50 Pancreas-a BXPC-3: 0.36 µg/mL (≈ 0.888 µM)
DU-145
  GI50 Prostate DU-145: 0.20 µg/mL (≈ 0.494 µM)
[1]
  stability of the material: unstable and decomposed over several days

— patent US7541346B2, “Pancratistatin cyclic phosphate prodrugs and phenpanstatin cyclic phosphate prodrugs” (Arizona Board of Regents, a body corporate of the State of …, priority 2003, dated 2009)
